Test systems include HCT-15 colon; HT29 colon; SW-620 colon; SN12C renal; HOP-62 NSCLC; OVCAR-5 ovarian; NCI-H460 lung; UO-31 renal; HCC-2998 colon; NCI-H226 lung.
Test in all cases: growth of human tumour cells (NCI), 48 h

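Cells were grown in 96-well plates and exposed to each compound for 48 hours at five concentrations; endpoints were interpolated linearly between bracketing concentrations, or set to the highest concentration if not reached. At the GI50, growth is halved. TGI denotes the concentration required for complete inhibition of growth.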

Consider `CC1CCCC(C(O)CC2CC(=O)NC(=O)C2)C1O` (stereo not given), for which the TGI in the test on HCT-15 colon, in the test on HT29 colon, with SW-620 colon, with SN12C renal, in the test on HOP-62 NSCLC and in the test on OVCAR-5 ovarian was more than 100 µM in each case. Also, the TGI with NCI-H460 lung, in the test with UO-31 renal, in the test with HCC-2998 colon and in the test on NCI-H226 lung was more than 100 µM throughout.
For the molecule `COc1cc(NCCCN=C(N)NC(N)=NC(C)C)c2ncccc2c1`, the GI50 was more than 100 µM in the test on HCT-15 colon; 6.38 µM in the test with HT29 colon; 11.6 µM with SW-620 colon; 3.51 µM in the test with SN12C renal; 35.2 µM with HOP-62 NSCLC; 12.8 µM with OVCAR-5 ovarian. In addition, the GI50 is 14.6 µM with NCI-H460 lung, more than 97.1 µM in the test with UO-31 renal, 3.29 µM with HCC-2998 colon and 42.3 µM with NCI-H226 lung. Besides, the TGI in the test on HCT-15 colon was more than 100 µM; in the test on HT29 colon, more than 100 µM; in the test on SW-620 colon it was more than 63.5 µM; in the test with SN12C renal, 27.2 µM; in the test on HOP-62 NSCLC, more than 84.8 µM; in the test on OVCAR-5 ovarian, 43.3 µM. Moreover, the TGI in the test with NCI-H460 lung is more than 79.5 µM; in the test with UO-31 renal, more than 100 µM; with HCC-2998 colon it was 22.1 µM; in the test with NCI-H226 lung, more than 100 µM.
With `C#Cc1c(/C=C/C(=O)OCC)ccc2ccccc12`, the GI50 in the test on HCT-15 colon was 9.99 µM; in the test with HT29 colon, 6.61 µM; with SW-620 colon, 32.2 µM; with SN12C renal it was 13.3 µM; in the test with HOP-62 NSCLC, 28.5 µM; with OVCAR-5 ovarian, 28.9 µM. Besides, the GI50 in the test with NCI-H460 lung was 78.2 µM; with UO-31 renal, 12.7 µM; with HCC-2998 colon, 27.4 µM; with NCI-H226 lung it was 19.9 µM. Besides, the TGI with HCT-15 colon was 97.3 µM; with HT29 colon, 26 µM; with SW-620 colon, more than 100 µM; in the test on SN12C renal, 39.4 µM; in the test with HOP-62 NSCLC it was 95.5 µM; in the test on OVCAR-5 ovarian it was more than 100 µM. Moreover, the TGI with NCI-H460 lung is more than 100 µM; in the test with UO-31 renal it was 26.6 µM; with HCC-2998 colon, more than 100 µM; in the test on NCI-H226 lung it was 82.9 µM.
For the molecule `CC(C)O/N=C/c1cc(NC(=S)OC(C)C)ccc1Cl`, the TGI with HCT-15 colon is more than 66.1 µM; with HT29 colon, 66.3 µM; in the test with SW-620 colon it was more than 72.6 µM; in the test on SN12C renal, more than 57.9 µM; in the test with HOP-62 NSCLC, more than 70.6 µM; in the test with OVCAR-5 ovarian, more than 86.1 µM. Moreover, the TGI with NCI-H460 lung is more than 100 µM; in the test on UO-31 renal it was more than 61.2 µM; in the test with HCC-2998 colon, more than 75.3 µM; in the test on NCI-H226 lung, more than 51.2 µM.
Consider `COCc1cc(C(=O)Nc2cc([C@H]3CC[C@@H](OC(=O)NC(C)C)C3)[nH]n2)n(C)n1`, for which the GI50 was 22.8 µM in the test on HCT-15 colon; 10.3 µM with HT29 colon; 4.32 µM with SW-620 colon; 9.58 µM in the test on SN12C renal; 8.6 µM with HOP-62 NSCLC; 7.99 µM in the test on OVCAR-5 ovarian. Moreover, the GI50 is 5.64 µM with NCI-H460 lung, 16 µM in the test on UO-31 renal, 5.39 µM with HCC-2998 colon and 5.63 µM with NCI-H226 lung. In addition, the TGI in the test on HCT-15 colon is more than 100 µM; in the test on HT29 colon, 89 µM; in the test on SW-620 colon, 74.7 µM; with SN12C renal it was more than 100 µM; in the test with HOP-62 NSCLC it was 88.4 µM; with OVCAR-5 ovarian it was more than 100 µM. Moreover, the TGI was more than 100 µM in the test with NCI-H460 lung, 58.6 µM with UO-31 renal, 48.2 µM with HCC-2998 colon and 76.5 µM with NCI-H226 lung.
Turning to `Oc1ccc(-c2nc3ccccc3s2)cc1CN(Cc1ccccn1)Cc1ccccn1`, the GI50 was 0.149 µM in the test on HCT-15 colon; 6.74 µM in the test on HT29 colon; 1.06 µM in the test on SW-620 colon; 1.7 µM in the test on SN12C renal; 0.34 µM in the test with HOP-62 NSCLC; 2.92 µM with OVCAR-5 ovarian. Besides, the GI50 in the test with NCI-H460 lung is 0.228 µM; with UO-31 renal, 0.0834 µM; with HCC-2998 colon it was 3.23 µM; with NCI-H226 lung, 0.21 µM. The TGI in the test with HCT-15 colon worked out at 14.3 µM; with HT29 colon, 19.9 µM; with SW-620 colon it was 14.7 µM; in the test on SN12C renal, 14.4 µM; with HOP-62 NSCLC, 32.1 µM; with OVCAR-5 ovarian, 29.8 µM. The TGI with NCI-H460 lung is 10.5 µM; in the test with UO-31 renal, 2.49 µM; in the test with HCC-2998 colon, 17 µM; in the test with NCI-H226 lung it was 3.5 µM.
Turning to `NCCOCCOCCNc1nc(-c2ccccc2)nc(N2CCN(c3ccccn3)CC2)n1`, the GI50 in the test on HCT-15 colon is 13.1 µM; in the test with HT29 colon it was 4.55 µM; with SW-620 colon it was 13.2 µM; in the test on SN12C renal it was 17.1 µM; in the test on HOP-62 NSCLC, 16.7 µM; in the test with OVCAR-5 ovarian it was 16.1 µM. The GI50 in the test on NCI-H460 lung was 16.5 µM; with UO-31 renal it was 12.7 µM; in the test with HCC-2998 colon it was 8.86 µM; with NCI-H226 lung it was 17.1 µM. Further, the TGI turned out to be 27.9 µM in the test on HCT-15 colon; 17.6 µM with HT29 colon; 28.4 µM with SW-620 colon; 32.8 µM in the test with SN12C renal; 31 µM in the test with HOP-62 NSCLC; 30.4 µM with OVCAR-5 ovarian. The TGI in the test on NCI-H460 lung was 34.9 µM; in the test on UO-31 renal it was 25.8 µM; in the test on HCC-2998 colon it was 22.3 µM; with NCI-H226 lung, 32.3 µM.
As for `Cc1nnc(-c2cccc(-c3ccc(C(=O)NCC4CC4)cc3)c2)o1`, the GI50 with HCT-15 colon, in the test with HT29 colon, in the test with SW-620 colon, in the test on SN12C renal, in the test with HOP-62 NSCLC and with OVCAR-5 ovarian was more than 25 µM throughout. Further, the GI50 with NCI-H460 lung, in the test on UO-31 renal, with HCC-2998 colon and in the test with NCI-H226 lung was more than 25 µM throughout. Moreover, the TGI in the test with HCT-15 colon, in the test with HT29 colon, in the test with SW-620 colon, in the test on SN12C renal, with HOP-62 NSCLC and in the test on OVCAR-5 ovarian was more than 25 µM throughout. For the same molecule, the TGI with NCI-H460 lung, in the test on UO-31 renal, in the test on HCC-2998 colon and with NCI-H226 lung was more than 25 µM throughout.

Values taken from PubChem BioAssay (NCI).
